Tests used:
Type in all cases: in vivo
[1] = tested on: Chilo suppressalis; assay: Example B1: activity against Chilo suppressalis (striped rice stemborer), artificial diet; conditions: 144 h, 200 ppm, L2 larvae, 6 days after infestation, read-out: control (at least one of mortality, anti-feedant effect, growth inhibition)
Procedure, shortened: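 Diet-incorporation surface assay: aqueous dilutions of 10'000 ppm DMSO stock applied to artificial diet, dried; 6-8 L2 larvae/well; read day 6 post-infestation for mortality, antifeedant effect, growth inhibition vs untreated. Active if any category above untreated.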

[2] = tested on: Diabrotica balteata; assay: Example B2: activity against Diabrotica balteata (corn root worm), maize sprouts; conditions: 96 h, L2 larvae, 4 days after infestation, read-out: effect in at least one of the two categories (mortality or growth inhibition)
Procedure, shortened: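 At 200 ppm, test solutions diluted in water from 10′000 ppm DMSO stocks were spray-applied to maize sprouts set on agar. Once dry, each well received 6–10 second-instar larvae. Four days later, mortality and growth inhibition were compared with untreated controls.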

[3] = tested on: Myzus persicae; assay: Example B4: activity against Myzus persicae (green peach aphid), intrinsic activity; conditions: 120 h, test rate 12 ppm, 5 days after infestation
Procedure, shortened: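 Mortality was read 5 days after infestation. Aphids on pea seedlings fed through a stretched Parafilm membrane on inverted 24-well plates containing sucrose solution mixed with test compound, which was diluted from 10′000 ppm DMSO stock.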

[4] = tested on: Plutella xylostella; assay: Example B5: activity against Plutella xylostella (diamond back moth), artificial diet, eggs; conditions: 192 h, 8 days after infestation, read-out: effect in at least one of the two categories (mortality or growth inhibition)
Procedure, shortened: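 Scoring at 8 days post-infestation compared mortality and growth inhibition with untreated controls, on diet treated at 200 ppm with water-diluted DMSO stock solutions. Diamondback moth eggs were placed on the dried diet in 24-well plates.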

[5] = tested on: Spodoptera littoralis; assay: Example B6: activity against Spodoptera littoralis (Egyptian cotton leaf worm), cotton leaf discs; conditions: foliar, 72 h, 200 ppm, L1 larvae, 3 days after infestation, read-out: control (at least one of mortality, anti-feedant effect, growth inhibition)
Procedure, shortened: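 Read-out: mortality, feeding deterrence and growth inhibition, assessed 3 days after infestation relative to untreated samples. Sprayed, dried cotton leaf discs on agar each received five first-instar (L1) larvae; sprays were aqueous solutions prepared from 10′000 ppm DMSO stocks.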

[6] = tested on: Myzus persicae; assay: Example B7b: Myzus persicae feeding/contact activity, eggplant leaf discs; conditions: foliar, 144 h, mixed ages, 6 days after infestation
Experimental: Eggplant leaf discs were placed onto agar in a 24-well microtiter plate and sprayed with aqueous test solutions prepared from 10′000 ppm DMSO stock solutions. After drying, the leaf discs were infested with an aphid population of mixed ages. The samples were assessed for mortality 6 days after infestation.

[7] = tested on: Pseudoplusia includens; assay: Example B9: Pseudoplusia includens (soybean looper), larvicide, feeding/contact, soybean plants; conditions: Chrysodeixis includens, 120 h; 50 ppm; L2 larvae; 5 days after infestation; read-out: effect in at least one of the two categories (mortality or growth inhibition)
Experimental: Soybean plants were treated in a spray chamber, cut off and placed into petri dishes containing wet filter paper. 1d after application leaves were infested with 5 L2 larvae and covered with a fabric filter and plastic lids. 5 days after infestation the samples were assessed for mortality and growth inhibition. The following compounds gave an effect of at least 80% in at least one of the two categories (mortality or growth inhibition) at an application rate of 50 ppm: […]

[8] = tested on: Euschistus heros; assay: Example B3: activity against Euschistus heros (neotropical brown stink bug), soybean leaves; conditions: 120 h, N2 nymphs, 5 days after infestation, read-out: effect in at least one of the two categories (mortality or growth inhibition)
Experimental: Soybean leaves on agar in 24-well microtiter plates were sprayed with aqueous test solutions prepared from 10′000 ppm DMSO stock solutions. After drying the leaves were infested with N2 nymphs. The samples were assessed for mortality and growth inhibition in comparison to untreated samples 5 days after infestation. The following compounds gave an effect of at least 80% in at least one of the two categories (mortality or growth inhibition) at an application rate of 200 ppm: […]

C[C@H](Nc1ncnc2c(C(F)(F)F)cc(Cl)cc12)c1ncnn1-c1cc(C(=O)N(C)C)ncn1 [Compound P30, 6-[5-[(1S)-1-[[6-chloro-8-(trifluoromethyl)quinazolin-4-yl]amino]ethyl]-1,2,4-triazol-1-yl]-N,N-dimethyl-pyrimidine-4-carboxamide]
≥ 80%: percent control (mortality, anti-feedant effect or growth inhibition) at 200 ppm [1] | percent effect (mortality or growth inhibition) at 200 ppm [2] | mortality at 12 ppm [3] | percent effect (mortality or growth inhibition) at 200 ppm [4] | percent control (mortality, anti-feedant effect or growth inhibition) at 200 ppm [5] | mortality at 200 ppm [6] | percent effect (mortality or growth inhibition) at 50 ppm [7]

C[C@@H](c1ncnn1-c1cc(C(=O)NCC#N)ncn1)N(C)c1ncnc2c(C(F)(F)F)cc(Cl)cc12 [Compound P52, 6-[5-[(1S)-1-[[6-chloro-8-(trifluoromethyl)quinazolin-4-yl]-methyl-amino]ethyl]-1,2,4-triazol-1-yl]-N-(cyanomethyl)pyrimidine-4-carboxamide]
≥ 80%: percent control (mortality, anti-feedant effect or growth inhibition) at 200 ppm [1] | percent effect (mortality or growth inhibition) at 200 ppm [2] | percent effect (mortality or growth inhibition) at 200 ppm [8] | mortality at 12 ppm [3] | percent effect (mortality or growth inhibition) at 200 ppm [4] | percent control (mortality, anti-feedant effect or growth inhibition) at 200 ppm [5] | mortality at 200 ppm [6] | percent effect (mortality or growth inhibition) at 50 ppm [7]

C[C@H](Nc1ncnc2c(C(F)(F)F)cc(Cl)cc12)c1ncnn1-c1cc(C(=O)N(C)C2CC2)ncn1 [Compound P63, 6-[5-[(1S)-1-[[6-chloro-8-(trifluoromethyl)quinazolin-4-yl]amino]ethyl]-1,2,4-triazol-1-yl]-N-cyclopropyl-N-methyl-pyrimidine-4-carboxamide]
≥ 80%: percent control (mortality, anti-feedant effect or growth inhibition) at 200 ppm [1] | percent effect (mortality or growth inhibition) at 200 ppm [2] | percent effect (mortality or growth inhibition) at 200 ppm [8] | mortality at 12 ppm [3] | percent effect (mortality or growth inhibition) at 200 ppm [4] | percent control (mortality, anti-feedant effect or growth inhibition) at 200 ppm [5] | mortality at 200 ppm [6]

CCN(C)C(=O)c1cc(-n2ncnc2[C@H](C)Nc2ncnc3c(C(F)(F)F)cc(Cl)cc23)ncn1 [Compound P31, 6-[5-[(1S)-1-[[6-chloro-8-(trifluoromethyl)quinazolin-4-yl]amino]ethyl]-1,2,4-triazol-1-yl]-N-ethyl-N-methyl-pyrimidine-4-carboxamide]
≥ 80%: percent control (mortality, anti-feedant effect or growth inhibition) at 200 ppm [1] | percent effect (mortality or growth inhibition) at 200 ppm [2] | mortality at 12 ppm [3] | percent effect (mortality or growth inhibition) at 200 ppm [4] | percent control (mortality, anti-feedant effect or growth inhibition) at 200 ppm [5] | mortality at 200 ppm [6] | percent effect (mortality or growth inhibition) at 50 ppm [7]

C[C@@H](c1ncnn1-c1cc(C(=O)N(C)C)ncn1)N(C)c1ncnc2c(C(F)(F)F)cc(Cl)cc12 [Compound P82, 6-[5-[(1S)-1-[[6-chloro-8-(trifluoromethyl)quinazolin-4-yl]-methyl-amino]ethyl]-1,2,4-triazol-1-yl]-N,N-dimethyl-pyrimidine-4-carboxamide]
≥ 80%: percent effect (mortality or growth inhibition) at 200 ppm [2] | mortality at 12 ppm [3] | percent effect (mortality or growth inhibition) at 200 ppm [4] | percent control (mortality, anti-feedant effect or growth inhibition) at 200 ppm [5] | mortality at 200 ppm [6]

CNC(=O)c1cc(-n2ncnc2[C@H](C)Nc2ncnc3c(S(=O)(=O)C(F)(F)F)cc(Cl)cc23)ncn1 [Compound P60, 6-[5-[(1S)-1-[[6-chloro-8-(trifluoromethylsulfonyl)quinazolin-4-yl]amino]ethyl]-1,2,4-triazol-1-yl]-N-methyl-pyrimidine-4-carboxamide]
≥ 80%: percent control (mortality, anti-feedant effect or growth inhibition) at 200 ppm [1] | percent effect (mortality or growth inhibition) at 200 ppm [2] | percent effect (mortality or growth inhibition) at 200 ppm [8] | mortality at 12 ppm [3] | percent effect (mortality or growth inhibition) at 200 ppm [4] | percent control (mortality, anti-feedant effect or growth inhibition) at 200 ppm [5] | percent effect (mortality or growth inhibition) at 50 ppm [7]

C[C@@H](c1ncnn1-c1cc(C(N)=O)ncn1)N(C)c1ncnc2c(S(=O)(=O)C(F)(F)F)cc(Cl)cc12 [Compound P67, 6-[5-[(1S)-1-[[6-chloro-8-(trifluoromethylsulfonyl)quinazolin-4-yl]-methyl-amino]ethyl]-1,2,4-triazol-1-yl]pyrimidine-4-carboxamide]
≥ 80%: percent control (mortality, anti-feedant effect or growth inhibition) at 200 ppm [1] | percent effect (mortality or growth inhibition) at 200 ppm [2] | percent effect (mortality or growth inhibition) at 200 ppm [8] | mortality at 12 ppm [3] | percent effect (mortality or growth inhibition) at 200 ppm [4] | percent control (mortality, anti-feedant effect or growth inhibition) at 200 ppm [5] | mortality at 200 ppm [6]

CNC(=O)c1cc(-n2ncnc2[C@H](C)N(C)c2ncnc3c(S(=O)(=O)C(F)(F)F)cc(Cl)cc23)ncn1 [Compound P61]
≥ 80%: percent control (mortality, anti-feedant effect or growth inhibition) at 200 ppm [1] | percent effect (mortality or growth inhibition) at 200 ppm [2] | percent effect (mortality or growth inhibition) at 200 ppm [8] | mortality at 12 ppm [3] | percent effect (mortality or growth inhibition) at 200 ppm [4] | percent control (mortality, anti-feedant effect or growth inhibition) at 200 ppm [5] | mortality at 200 ppm [6] | percent effect (mortality or growth inhibition) at 50 ppm [7]

C[C@@H](c1ncnn1-c1cc(C(N)=O)ncn1)N(C)c1ncnc2c(I)cc(Cl)cc12 [Compound P47, 6-[5-[(1S)-1-[(6-chloro-8-iodo-quinazolin-4-yl)-methyl-amino]ethyl]-1,2,4-triazol-1-yl]pyrimidine-4-carboxamide]
≥ 80%: percent control (mortality, anti-feedant effect or growth inhibition) at 200 ppm [1] | percent effect (mortality or growth inhibition) at 200 ppm [2] | percent effect (mortality or growth inhibition) at 200 ppm [8] | mortality at 12 ppm [3] | percent effect (mortality or growth inhibition) at 200 ppm [4] | percent control (mortality, anti-feedant effect or growth inhibition) at 200 ppm [5] | percent effect (mortality or growth inhibition) at 50 ppm [7]

C[C@H](Nc1ncnc2c(S(=O)(=O)C(F)(F)F)cc(Cl)cc12)c1ncnn1-c1cc(C(N)=O)ncn1 [Compound P59, 6-[5-[(1S)-1-[[6-chloro-8-(trifluoromethylsulfonyl)quinazolin-4-yl]amino]ethyl]-1,2,4-triazol-1-yl]pyrimidine-4-carboxamide]
≥ 80%: percent control (mortality, anti-feedant effect or growth inhibition) at 200 ppm [1] | percent effect (mortality or growth inhibition) at 200 ppm [2] | percent effect (mortality or growth inhibition) at 200 ppm [8] | mortality at 12 ppm [3] | percent effect (mortality or growth inhibition) at 200 ppm [4] | percent control (mortality, anti-feedant effect or growth inhibition) at 200 ppm [5] | mortality at 200 ppm [6]

CNC(=O)c1cc(-n2ncnc2[C@H](C)N(C)c2ncnc3c(Cl)cc(C(F)(F)F)cc23)ncn1 [Compound P15, 6-[5-[(1S)-1-[[8-chloro-6-(trifluoromethyl)quinazolin-4-yl]-methyl-amino]ethyl]-1,2,4-triazol-1-yl]-N-methyl-pyrimidine-4-carboxamide]
≥ 80%: percent control (mortality, anti-feedant effect or growth inhibition) at 200 ppm [1] | percent effect (mortality or growth inhibition) at 200 ppm [2] | percent effect (mortality or growth inhibition) at 200 ppm [8] | mortality at 12 ppm [3] | percent effect (mortality or growth inhibition) at 200 ppm [4] | percent control (mortality, anti-feedant effect or growth inhibition) at 200 ppm [5] | percent effect (mortality or growth inhibition) at 50 ppm [7]

C[C@H](Nc1ncnc2c(Br)cc(Br)cc12)c1ncnn1-c1cc(C#N)ncn1 [Compound P41, 6-[5-[(1S)-1-[(6,8-dibromoquinazolin-4-yl)amino]ethyl]-1,2,4-triazol-1-yl]pyrimidine-4-carbonitrile]
≥ 80%: percent control (mortality, anti-feedant effect or growth inhibition) at 200 ppm [1] | percent effect (mortality or growth inhibition) at 200 ppm [2] | percent effect (mortality or growth inhibition) at 200 ppm [4] | percent control (mortality, anti-feedant effect or growth inhibition) at 200 ppm [5] | mortality at 200 ppm [6]
